Laboratory results: patent publication USRE28700E, “Antibiotic X-5108 for stimulating growth” (Hoffmann-La Roche Inc., priority 1972, dated 1976)
Where two headings read alike, the source gives them in different places.

Columns and labels:
Bacillus E = experiment: Agar diffusion cup-plate assay, Bacillus E; type: cell-based
Experimental: (§1) The activity of antibiotic X-5108 can be measured in vitro by its zone of inhibition against the gram-positive bacterium Bacillus E in the usual cup-plate agar diffusion method. Alternately the gram-positive bacterium Bacillus simplex can be employed. Both bacteria give approximately 20 mm. inhibition zones with an arbitrarily defined 1 unit/ml. solution. In this assay method, a culture of the test microorganism is grown in nutrient broth, for example, Trypticase Soy Broth, for 24 to 42 hours at 28° C. in a rotary shaker (100 ml. medium per 500 ml. Erlenmeyer flask). An inoculum concentration of 0.25 to 0.5 percent is used to inoculate the 4 ml. seed layer which is poured over a prehardened 20 ml. of base nutrient agar layer in a 100 ml. glass or disposable plastic Petri dish. The plates are refrigerated for at least two hours before cupping and filling with test solution containing the antibiotic. The plates are then incubated at 35° C. for 18 hours and zone diameters are measured to the nearest 0.5 mm. Calculations of unit per ml. potencies are then made from standard curves.
(§2) The antimicrobial spectrum was determined by employing agar diffusion cup-plate assays as described earlier.

[1] = tested on: a variety of microorganisms including gram-positive and gram-negative bacteria; experiment: Antimicrobial activity in general / biopotency; type: cell-based
Experimental: as §1, §2

mice = experiment: Acute toxicity in mice (LD50), oral and subcutaneous; type: in vivo
Streptococcus pyogenes = experiment: Activity against Streptococcus pyogenes infection (CD50); type: in vivo
Bacillus simplex = experiment: Agar diffusion cup-plate assay, Bacillus simplex; type: cell-based; conditions: arbitrarily defined 1 unit/ml. solution
Experimental: as §1, §2

caecal coccidiosis = experiment: Activity in caecal coccidiosis; conditions: in vivo
[2] = Growth promotion in poultry (general statement); type: in vivo
Proteus vulgaris = experiment: Activity against gram-negative Proteus vulgaris infection; conditions: in vivo
[3] = Growth stimulating effect and feed efficiency in broiler chicks (Table 12); type: in vivo, Cornish Cross Sexed Broiler Chicks
Experimental: A basal ration was prepared containing the following named ingredients in the quantities hereinafter indicated: […]
Antibiotic X-5108 was added to this ration in a ratio of 50 milligrams of antibiotic per kilogram of ration.
(§3) The growth stimulating effects of antibiotic X-5108 were determined by allowing poultry to feed, ad libitum, on the antibiotic supplemented ration. In the test, one day old Cornish Cross Sexed Broiler Chicks were used. The test utilized 10 chicks per replicate (5 males and 5 females). The replicate groups were permitted access to the ration. A planned random distribution of the replicates was made to equalize factors of heating, light and position. The birds were observed over a two week period, with group weight being determined several times during the period and individual weights being determined at the end of 14 days. Feed consumption was also recorded and improvement in feed efficiency, as compared to the control, was calculated.
(§4) The average gain for each test group is divided by the average gain of the negative control group and the quotient multiplied by 100 to yield the percent weight gain. Gain is the final body weight of the chick at the end of the 2 week test minus the beginning weight of 1 day of age. [formula]

[4] = Growth stimulating effect and feed efficiency in chicks, repeated trials at varied levels (Table 13); type: in vivo, Cornish Cross Sexed Broiler Chicks; conditions: for Percent gain: control = 100
Experimental: as §3, §4
The experiment described in Example 5, including the control, was repeated several times using the same basal ration as in Example 5. In these trials the level of antibiotic X-5108 was varied. The trial chickens were fed on supplemented feed rations containing the active ingredient in a ratio of 5, 10, 25, 50 and 100 mg. per kg. of feed. These trials were repeated to confirm the results. In the control test four replicates of ten birds were allowed to feed on a basal ration devoid of the antibiotic supplement. […] Feed consumption was also recorded and improvements in feed efficiency in comparison to the control were calculated. Table 13 records the results of this series of experiments.

Diplococcus pneumoniae = experiment: Activity against Diplococcus pneumoniae (CD50); type: in vivo

## C/C=C\C=C\[C@@H]1O[C@](O)([C@H](CC)C(=O)NC/C=C/C=C(\C)[C@@H](OC)[C@@H](C)[C@@H]2O[C@H](/C=C/C=C/C=C(\C)C(=O)c3c(O)ccn(C)c3=O)[C@H](O)[C@@H]2O)[C@H](O)[C@H](O)C1(C)C [Antibiotic X-5108]
Bacillus E; arbitrarily defined 1 unit/ml. solution
  inhibition zone: approximately 20 mm.
Bacillus E; solid powder after butyl acetate extraction, Example 1
  potency against Bacillus E: 120 units Bacillus E per mg.
[1]; after countercurrent distribution, Example 3
  bipotency relative to starting material: approximately twice that of the starting material
[1]; agar diffusion cup-plate
  antimicrobial spectrum (in words): broad antimicrobial spectrum
[1]; crude or more purified form
  activity against a variety of microorganisms (in words): active against a variety of microorganisms including gram-positive and gram-negative bacteria
mice; mice, oral
  LD50: > 2,000 mg./kg.
mice; mice, orally and subcutaneously
  toxicity in mice (in words): relatively atoxic orally and subcutaneously
mice; mice, subcutaneous
  LD50: 1,320 mg./kg.
mice; oral and parenteral
  oral and parenteral toxicity (in words): low oral and parenteral toxicity
Streptococcus pyogenes; orally
  CD50: 52 mg/kg
Streptococcus pyogenes; subcutaneously
  CD50: 44 mg/kg
Streptococcus pyogenes; systemically (oral route) and local (subcutaneous route)
  antistreptococcal activity (in words): marked antistreptococcal activity
Bacillus simplex
  inhibition zone: approximately 20 mm.
Caecal coccidiosis
  activity in caecal coccidiosis (in words): activity
[2]
  feed efficiency in poultry (in words): enhanced feed efficiency
  growth promotion in poultry (in words): exhibits activity as a poultry growth promotant
[2]; listed as antibiotic X-5108
  growth promotion in poultry (in words): marked growth promotion in poultry
Proteus vulgaris
  activity against Proteus vulgaris infection (in words): active
[3]; 50 mg. per kilogram of feed
  growth rate compared to control (in words): increased growth rate
[3]; 50 mg. per kilogram of feed, vs control
  improvement in feed efficiency: 10%
[3]; 50 mg./kg. feed, average for 40 chicks, basal control 154±8
  Two-week gain, g. ±2SE: 185 ± 12 g
[3]; 50 mg./kg. feed, two weeks, control 1.55
  Feed efficiency: 1.39
[3]; 50 mg./kg. feed, two weeks, control = 100
  Percent gain: 120%
[3]; 50 mg./kg. feed, vs control
  Percent improved feed efficiency: +12%
[4]; 10 mg./kg., 18 birds
  Percent improved feed eff.: +13%
  Percent gain: 124%
[4]; 10 mg./kg., 18 birds, control 1.54
  Feed eff.: 1.41
[4]; 10 mg./kg., 18 birds, control 149
  Two-week gain: 185 g
[4]; 25 mg./kg., 18 birds
  Percent improved feed eff.: +16%
  Percent gain: 123%
[4]; 25 mg./kg., 18 birds, control 1.59
  Feed eff.: 1.37
[4]; 25 mg./kg., 18 birds, control 146
  Two-week gain: 180 g
[4]; 50 mg./kg., 18 birds
  Percent improved feed eff.: +7%
  Percent gain: 114%
[4]; 50 mg./kg., 18 birds, control 1.47
  Feed eff.: 1.38
[4]; 50 mg./kg., 18 birds, control 152
  Two-week gain: 173 g
[4]; 50 mg./kg., 24 birds
  Percent improved feed eff.: +12%
  Percent gain: 117%
[4]; 50 mg./kg., 24 birds, control 1.54
  Feed eff.: 1.37
[4]; 50 mg./kg., 24 birds, control 149
  Two-week gain: 175 g
[4]; 100 mg./kg., 18 birds
  Percent improved feed eff.: +14%
  Percent gain: 122%
[4]; 100 mg./kg., 18 birds, control 1.54
  Feed eff.: 1.33
[4]; 100 mg./kg., 18 birds, control 149
  Two-week gain: 182 g
[4]; level not given, 18 birds
  Percent improved feed eff.: +9%
  Percent gain: 123%
[4]; level not given, 18 birds, control 1.51
  Feed eff.: 1.39
[4]; level not given, 18 birds, control 149
  Two-week gain: 183 g
Diplococcus pneumoniae; in vivo
  activity against pneumococcus (in words): activity against pneumococcus
Diplococcus pneumoniae; p.o.
  CD50: 807 mg/kg
Diplococcus pneumoniae; sbc (subcutaneous)
  CD50: 283 mg/kg
